Measurements: patent publication US4863951A, “Pharmacologically active amino-5,6,7,8-tetrahydronaphtho [2,3-B] furan compounds” (ADIR Et Cie, priority 1987, dated 1989)
Structures can show the parent of a compound that is named as a salt. Where two headings read alike, the source gives them in different places.

Experiments:
[1] = tested on: isolation-induced aggression; assay: Antiaggressive effects: isolation-induced aggression in mice; type: in vivo; details: isolated mice, i.p.
Text: (§1) The antiaggressive effects of the compounds of the invention were investigated by two methods, one of them testing for an inhibition of aggressive behavior in peviously isolated mice (Yen C. Y., Stanger A. L., and Millman N, Arch. Int. Pharmacodyn. Therap. (1959), 123, p. 179-185), and the other in isolated and bulbectomized rats (Garattini S. and Sigg E. B. "Aggressive Behaviour" p. 47-55 Ed. Excerpta Medica Found., Amsterdam, 1969).
(§2) (Tables IX and X, s=significant, p<0.05).

[2] = tested on: reserpine-induced hypothermia; assay: Antagonism of reserpine-induced hypothermia; type: in vivo, Swiss CD male mice; details: mice, reserpine 2.5 mg.kg^-1 i.p.
Description: (§3) The antidepressant effects of the compounds of the invention were investigated by assessing the antagonism of reserpine-induced hypothermia and the antagonism of the ponto-geniculo-occipital waves induced by the compound Ro4-1284 in cats.
The study is carried out on Swiss CD male mice (27-28 g). After distribution into groups of 10 animals each, reserpine is injected intraperitoneally at a dose of 2.5 mg.kg^-1. Three hours later, the compounds undergoing trial are administered intraperitoneally. The rectal temperature of the animals is measured one hour and two hours after the second treatment, and compared with the initial temperature To of these same animals, measured immediately before the administration of the compounds undergoing trial.

[3] = tested on: apomorphine-induced stereotypy; assay: Antagonism of apomorphine-induced stereotypy in rats; type: in vivo; details: Rattus norvegicus, ip, 0.5 h, apomorphine 1.5 mg.kg^-1 i.p., 30 minutes
Description: (§4) The inhibitory activity of the compounds of the invention with respect to apomorphine- or amphetamine-induced stereotypy in rats was assessed using the scale of scoring of stereotyped movements described by Quinton R. M. and Halliwell G. in Nature (1963), 200, p. 178-179.
Apomorphine or amphetamine was administered to the animals intraperitoneally at a dose of 1.5 mg.kg^-1. The percentage inhibition (-) or potentiation (+) of the stereotypy score (% ISS) shown in Tables IV and V for apomorphine corresponds to a measurement time of 30 minutes. In contrast, the percentage inhibition of the stereotypy score shown in Table VI for amphetamine corresponds to a measurement time of 3 hours. […]

[4] = tested on: ponto-geniculo-occipital (P.G.O.) waves induced by Ro4-1284; assay: Antagonism of the ponto-geniculo-occipital (P.G.O.) waves induced by Ro4-1284; type: in vivo; details: Felis catus, iv, cats, i.v., read-out: ED50 (effective dose inhibiting by 50% the number of P.G.O. waves)
Description: as §3
This study was performed according to the method of Ruch-Monachon M. A., Jalfre M. and Haefely W. described in Arch. Int. Pharm. Therap., (1976), 219, No. 2, p. 251-346, and it enabled the effective dose (i.v) inhibiting by 50% (ED50) the number of P.G.O waves to be assessed.

[5] = tested on: apomorphine-induced hypothermia; assay: Antagonism with respect to apomorphine-induced hypothermia in mice; type: in vivo; details: apomorphine 1 mg.kg^-1 s.c., after 2 hours; for % antagonism of hypothermia: hydrochloride
Description: Testing for an antagonism with respect to apomorphine-induced hypothermia in mice was performed according to the method described by CHERMAT R. and PONCELET M. in J. Pharmac. (1983), 14, No. 1, p. 93-97. The dose of apomorphine administered subcutaneously was 1 mg.kg^-1. Tables VII and VIII show the percentage antagonism of the hypothermia observed after 2 hours.

[6] = tested on: aggression of isolated, bulbectomized rats; assay: Antiaggressive effects: aggression of isolated, bulbectomized rats; type: in vivo; details: i.p.
Text: as §1, §2

[7] = tested on: apomorphine-induced rearing-up; assay: Antagonism of apomorphine-induced rearing-up behavior in mice; type: in vivo; details: apomorphine 0.75 mg.kg^-1 s.c.; for % inhibition of rearing-up: hydrochloride
Description: Studied in the test of antagonism of apomorphine-induced rearing-up following the subcutaneous administration of a dose of 0.75 mg.kg^-1 of this substance in mice, the compounds of general formula I act in a clear-cut manner at doses greater than or equal to 2.5 mg.kg^-1 (i.p.). The same results are observed when the compounds of general formula I are administered orally at a dose of 20 mg.kg^-1. The activity of the compounds was assessed according to the method described by Protais P, Costentin J and Schwartz J. C. in Psychopharmacology (1976), 50, p. 1-6.
(§5) (s=significant difference, p<0.05).

[8] = tested on: amphetamine-induced stereotypy; assay: Antagonism of amphetamine-induced stereotypy in rats; type: in vivo; details: 3 hours
Description: as §4
Apomorphine or amphetamine was administered to the animals intraperitoneally at a dose of 1.5 mg.kg^-1. The percentage inhibition (-) or potentiation (+) of the stereotypy score (% ISS) shown in Tables IV and V for apomorphine corresponds to a measurement time of 30 minutes. In contrast, the percentage inhibition of the stereotypy score shown in Table VI for amphetamine corresponds to a measurement time of 3 hours.
as §5

[9] = tested on: interoceptive stimulus of apomorphine; assay: Drug discrimination in rats (generalization with apomorphine); type: in vivo; details: 2.5 mg.kg^-1 i.p., 30 minutes before test, hydrochloride
Description: Rats were trained to discriminate between the effect of the interoceptive stimulus of apomorphine (0.2 mg.kg^-1 i.p.) and that of physiological saline, according to a principle described by Colpaert F. in "Drug discrimination application in C.N.S. Pharmacology" Ed. Elsevier Biomedical 1982, Amsterdam. […]
Under the experimental conditions employed, the behavior shown by the animals coincides with that noted in the case of administration of apomorphine.

SMILES: CN(C)C1CCc2cc3c(cc2C1)OCC3 (racemic) [Example 6, dl-7-(N,N-Dimethylamino)-2,3,5,6,7,8-hexahydronaphtho[2,3-b]furan hydrochloride]
- % of pairs of mice showing no sign of fighting ([1]; 2.5 mg.kg^-1): 40%
- % of pairs of mice showing no sign of fighting ([1]; 5 mg.kg^-1): 44%
- % of pairs of mice showing no sign of fighting ([1]; 10 mg.kg^-1): 78%
- % inhibition of hypothermia ([2]; 2.5 mg.kg^-1 i.p.): -1%
- % inhibition of hypothermia ([2]; 5 mg.kg^-1 i.p.): +1%
- % inhibition of hypothermia ([2]; 10 mg.kg^-1 i.p.): -24%
- % inhibition of hypothermia ([2]; 20 mg.kg^-1 i.p.): -20%
- change in vivo at 10 mg/kg ([3]; read-out: % ISS (inhibition (-) or potentiation (+) of the stereotypy score), rats, i.p. dose 10 mg.kg^-1): -48%
- change in vivo at 20 mg/kg ([3]; read-out: % ISS (inhibition (-) or potentiation (+) of the stereotypy score), rats, i.p. dose 20 mg.kg^-1): -58%
- ED50 [4]: 0.498 mg/kg
- change in vivo at 2.5 mg/kg ([5]; Mus musculus, ip, 2 h, read-out: % antagonism of hypothermia, mice, i.p. dose 2.5): 6%
- change in vivo at 5 mg/kg ([5]; Mus musculus, ip, 2 h, read-out: % antagonism of hypothermia, mice, i.p. dose 5): -6%
- change in vivo at 10 mg/kg ([5]; Mus musculus, ip, 2 h, read-out: % antagonism of hypothermia, mice, i.p. dose 10): -25%
- change in vivo at 20 mg/kg ([5]; Mus musculus, ip, 2 h, read-out: % antagonism of hypothermia, mice, i.p. dose 20): -48%
- % of rats rendered non-aggressive ([6]; 2.5 mg.kg^-1): 30%
- change in vivo at 2.5 mg/kg ([7]; Mus musculus, ip, read-out: % inhibition of rearing-up, mice, i.p. dose 2.5 mg.kg^-1): -17%
- change in vivo at 5 mg/kg ([7]; Mus musculus, ip, read-out: % inhibition of rearing-up, mice, i.p. dose 5 mg.kg^-1): -54%
- change in vivo at 10 mg/kg ([7]; Mus musculus, ip, read-out: % inhibition of rearing-up, mice, i.p. dose 10 mg.kg^-1): -94%
- change in vivo at 20 mg/kg ([7]; Mus musculus, ip, read-out: % inhibition of rearing-up, mice, i.p. dose 20 mg.kg^-1): -100%

SMILES: O=C(O)CCCCCCNC1CCc2cc3c(cc2C1)OCC3 (racemic) [Example 12, dl-7-{N-(2,3,5,6,7,8-Hexahydronaphtho[2,3-b]furan-7-yl)amino}heptanoic acid hydrochloride]
- % inhibition of hypothermia ([2]; 5 mg.kg^-1 i.p.): -23%
- % inhibition of hypothermia ([2]; 10 mg.kg^-1 i.p.): -45%
- % inhibition of hypothermia ([2]; 20 mg.kg^-1 i.p.): -18%
- change in vivo at 10 mg/kg ([3]; rats, i.p. dose 10 mg.kg^-1, read-out: % ISS (inhibition (-) or potentiation (+) of the stereotypy score)): 19%
- change in vivo at 20 mg/kg ([3]; rats, i.p. dose 20 mg.kg^-1, read-out: % ISS (inhibition (-) or potentiation (+) of the stereotypy score)): -3%
- % ISS (inhibition (-) or potentiation (+) of the stereotypy score) ([8]; i.p. dose 5 mg.kg^-1, amphetamine 1.5 mg.kg^-1 i.p.): +11%
- % ISS (inhibition (-) or potentiation (+) of the stereotypy score) ([8]; i.p. dose 10 mg.kg^-1, amphetamine 1.5 mg.kg^-1 i.p.): +14%
- ED50 [4]: > 2.52 mg/kg
- change in vivo at 10 mg/kg ([5]; Mus musculus, ip, mice, i.p. dose 10, read-out: % antagonism of hypothermia): -4%
- change in vivo at 20 mg/kg ([5]; Mus musculus, ip, mice, i.p. dose 20, read-out: % antagonism of hypothermia): -2%
- change in vivo at 10 mg/kg ([7]; Mus musculus, ip, mice, i.p. dose 10 mg.kg^-1, read-out: % inhibition of rearing-up): -17%
- change in vivo at 20 mg/kg ([7]; Mus musculus, ip, mice, i.p. dose 20 mg.kg^-1, read-out: % inhibition of rearing-up): -20%

SMILES: NC1CCc2cc3c(cc2C1)OCC3 (stereo not drawn) [Example 3, d-7-Amino-2,3,5,6,7,8-hexahydronaphtho[2,3-b]furan hydrochloride]
- % of pairs of mice showing no sign of fighting ([1]; 2.5 mg.kg^-1, hydrochloride): 56%
- % of pairs of mice showing no sign of fighting ([1]; 5 mg.kg^-1, hydrochloride): 78%
- % of animals which generalize [9]: 88%
- Number of animals showing the effect of generalization with apomorphine [9]: 8/9
- ED50 [4]: 0.13 mg/kg
- % antagonism of hypothermia ([5]; mice, i.p. dose 2.5): -72%
- % antagonism of hypothermia ([5]; mice, i.p. dose 5): -79%
- % antagonism of hypothermia ([5]; mice, i.p. dose 10): -91%
- % antagonism of hypothermia ([5]; mice, i.p. dose 20): -86%
- % of rats rendered non-aggressive ([6]; 2.5 mg.kg^-1, hydrochloride): 64%
- % inhibition of rearing-up ([7]; mice, i.p. dose 10 mg.kg^-1): -72%
- % inhibition of rearing-up ([7]; mice, i.p. dose 20 mg.kg^-1): -79%
